Test results: patent US8486933B2, “Pyrimidine inhibitors of kinase activity” (AbbVie Inc., priority 2009, dated 2013)

Target: T1, human IGF-1R (Homo sapiens, UniProt P08069)
T1 construct: human IGF-1R, amino acids 954-1367 expressed by baculovirus in Sf21 cells; GST (C); purchased Cell Signaling Technology; host or cells: baculovirus in Sf21 cells
Assay: IGF-1R homogenous time-resolved fluorescence (HTRF) in vitro kinase assay
Format: biochemical
Conditions: recombinant GST-tagged human IGF-1R aa 954-1367; ATP 50 μM; 60 minutes at room temperature
Procedure: IGF-1R kinase activity was assayed by a homogenous time-resolved fluorescence (HTRF) in vitro kinase assay (Mathis, G., HTRF(R) Technology. J Biomol Screen, 1999. 4(6): p. 309-314). Specifically, 10 μL C-terminal GST-tagged, recombinant, human IGF-1R, amino acids 954-1367 expressed by baculovirus in Sf21 cells (Cell Singaling Technology) was mixed with 10 μL inhibitor (various concentrations, 2% final DMSO) and 10 μL of ATP (50 μM final concentration) in reaction buffer (50 mM HEPES, pH 7.5, 10 mM MgCl2, 2 mM MnCl2, 0.1% BSA and 1 mM DTT, 40 μL final volume). The reaction was initiated by addition of 10 μL of biotinylated peptide substrate (Biotin-Ahx-[…], 0.5 μM final concentration) in a black 384-well plate (Packard). […] The quenched reaction was allowed to stand at room temperature for 1 hour and then read in a time-resolved fluorescence detector (Envision, Perkin Elmer) at 615 nm and 665 nm simultaneously. The ratio between the signal of 615 nm and 665 nm was used in the calculation of the IC50.

T1 sequence (P08069 954-1367): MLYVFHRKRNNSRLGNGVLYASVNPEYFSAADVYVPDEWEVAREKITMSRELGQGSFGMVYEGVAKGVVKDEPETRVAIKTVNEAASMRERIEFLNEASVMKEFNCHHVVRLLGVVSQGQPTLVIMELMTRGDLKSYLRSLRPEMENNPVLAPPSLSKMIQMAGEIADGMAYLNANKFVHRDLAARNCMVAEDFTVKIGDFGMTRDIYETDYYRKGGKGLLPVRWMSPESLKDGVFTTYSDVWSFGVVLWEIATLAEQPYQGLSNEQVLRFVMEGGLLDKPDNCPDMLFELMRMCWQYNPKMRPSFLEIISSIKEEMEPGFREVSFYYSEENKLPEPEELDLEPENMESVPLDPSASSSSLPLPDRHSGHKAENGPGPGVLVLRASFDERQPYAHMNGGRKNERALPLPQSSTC

Molecule COc1cc(N2CCC(N(C)C)CC2)ccc1Nc1ncc(Br)c(Nc2cc3cnn(C)c3cc2S(=O)(=O)C(C)C)n1 [Example 27, 5-bromo-N^2-{4-[4-(dimethylamino)piperidin-1-yl]-2-methoxyphenyl}-N^4-[6-(isopropylsulfonyl)-1-methyl-1H-indazol-5-yl]pyrimidine-2,4-diamine] has an IC50 of less than 10 nM.
For COc1cc(N2CCC(N3CCN(C)CC3)CC2)ccc1Nc1ncc(Br)c(Nc2cc3cnn(C)c3cc2S(=O)(=O)C(C)C)n1 [Example 28, 5-bromo-N^4-[6-(isopropylsulfonyl)-1-methyl-1H-indazol-5-yl]-N^2-{2-methoxy-4-[4-(4-methylpiperazin-1-yl)piperidin-1-yl]phenyl}pyrimidine-2,4-diamine], the IC50 was less than 10 nM.
Work on COc1cc(N2CCC(N(C)C)CC2)ccc1Nc1ncc(Br)c(Nc2cc3cn(C)nc3cc2S(=O)(=O)C(C)C)n1 [Example 29, 5-bromo-N^2-{4-[4-(dimethylamino)piperidin-1-yl]-2-methoxyphenyl}-N^4-[6-(isopropylsulfonyl)-2-methyl-2H-indazol-5-yl]pyrimidine-2,4-diamine] yielded an IC50 of 101 to 500 nM.
In the case of CCS(=O)(=O)c1cc2[nH]ncc2cc1Nc1nc(Nc2ccc(N3CCC(N(C)C)CC3)cc2OC)ncc1Br [Example 30, 5-bromo-N^2-{4-[4-(dimethylamino)piperidin-1-yl]-2-methoxyphenyl}-N^4-[6-(ethylsulfonyl)-1H-indazol-5-yl]pyrimidine-2,4-diamine], the IC50 is reported as less than 10 nM.
For CCS(=O)(=O)c1cc2[nH]ncc2cc1Nc1nc(Nc2ccc(N3CCC(N(C)C)CC3)cc2)ncc1Br [Example 31, 5-bromo-N^2-{4-[4-(dimethylamino)piperidin-1-yl]phenyl}-N^4-[6-(ethylsulfonyl)-1H-indazol-5-yl]pyrimidine-2,4-diamine], the IC50 was 10 to 50 nM.
CCS(=O)(=O)c1cc2[nH]ncc2cc1Nc1nc(Nc2ccc(N3CCOCC3)cc2OC)ncc1Br [Example 32, 5-bromo-N^4-[6-(ethylsulfonyl)-1H-indazol-5-yl]-N^2-(2-methoxy-4-morpholin-4-ylphenyl)pyrimidine-2,4-diamine] was tested, and the IC50 was 10 to 50 nM.
CCS(=O)(=O)c1cc2c(cnn2C)cc1Nc1nc(Nc2ccc(N3CCC(N(C)C)CC3)cc2OC)ncc1Br [Example 33, 5-bromo-N^2-{4-[4-(dimethylamino)piperidin-1-yl]-2-methoxyphenyl}-N^4-[6-(ethylsulfonyl)-1-methyl-1H-indazol-5-yl]pyrimidine-2,4-diamine] was tested, and the IC50 was less than 10 nM.
COc1cc(N2CCC(N(C)C)CC2)ccc1Nc1ncc(Br)c(Nc2cc3cnn(C)c3cc2S(C)(=O)=O)n1 [Example 34, 5-bromo-N^2-{4-[4-(dimethylamino)piperidin-1-yl]-2-methoxyphenyl}-N^4-[1-methyl-6-(methylsulfonyl)-1H-indazol-5-yl]pyrimidine-2,4-diamine] showed an IC50 of 10 to 50 nM.
CNC(=O)c1cc2c(cnn2C)cc1Nc1nc(Nc2ccc(N3CCC(N(C)C)CC3)cc2OC)ncc1Br [Example 35, 5-{[5-bromo-2-({4-[4-(dimethylamino)piperidin-1-yl]-2-methoxyphenyl}amino)pyrimidin-4-yl]amino}-N,1-dimethyl-1H-indazole-6-carboxamide] gave an IC50 of 10 to 50 nM.
In the case of CCS(=O)(=O)c1cc2c(cnn2C)cc1Nc1nc(Nc2ccc(N3CCC(N(C)C)CC3)cc2)ncc1Br [Example 36, 5-bromo-N^2-{4-[4-(dimethylamino)piperidin-1-yl]phenyl}-N^4-[6-(ethylsulfonyl)-1-methyl-1H-indazol-5-yl]pyrimidine-2,4-diamine], the IC50 is reported as 10 to 50 nM.
For CN(C)C1CCN(c2ccc(Nc3ncc(Br)c(Nc4cc5cnn(C)c5cc4S(C)(=O)=O)n3)cc2)CC1 [Example 37, 5-bromo-N^2-{4-[4-(dimethylamino)piperidin-1-yl]phenyl}-N^4-[1-methyl-6-(methylsulfonyl)-1H-indazol-5-yl]pyrimidine-2,4-diamine], the IC50 was 10 to 50 nM.
CNC(=O)c1cc2c(cnn2C)cc1Nc1nc(Nc2ccc(N3CCC(N(C)C)CC3)cc2)ncc1Br [Example 38, 5-{[5-bromo-2-({4-[4-(dimethylamino)piperidin-1-yl]phenyl}amino)pyrimidin-4-yl]amino}-N,1-dimethyl-1H-indazole-6-carboxamide] was tested, and the IC50 was 10 to 50 nM.
With CCS(=O)(=O)c1cc2c(cnn2C)cc1Nc1nc(Nc2ccc(N3CCOCC3)cc2OC)ncc1Br [Example 39, 5-bromo-N^4-[6-(ethylsulfonyl)-1-methyl-1H-indazol-5-yl]-N^2-(2-methoxy-4-morpholin-4-ylphenyl)pyrimidine-2,4-diamine] the IC50 was 10 to 50 nM.
For COc1cc(N2CCOCC2)ccc1Nc1ncc(Br)c(Nc2cc3cnn(C)c3cc2S(C)(=O)=O)n1 [Example 40, 5-bromo-N^2-(2-methoxy-4-morpholin-4-ylphenyl)-N^4-[1-methyl-6-(methylsulfonyl)-1H-indazol-5-yl]pyrimidine-2,4-diamine], the IC50 was 10 to 50 nM.
Molecule CNC(=O)c1cc2c(cnn2C)cc1Nc1nc(Nc2ccc(N3CCOCC3)cc2OC)ncc1Br [Example 41, 5-({5-bromo-2-[(2-methoxy-4-morpholin-4-ylphenyl)amino]pyrimidin-4-yl}amino)-N,1-dimethyl-1H-indazole-6-carboxamide] has an IC50 of 10 to 50 nM.
In the case of CCS(=O)(=O)c1cc2c(cnn2C)cc1Nc1nc(Nc2ccc(N3CCN(C(C)C)CC3)cc2OC)ncc1Br [Example 42, 5-bromo-N^4-[6-(ethylsulfonyl)-1-methyl-1H-indazol-5-yl]-N^2-[4-(4-isopropylpiperazin-1-yl)-2-methoxyphenyl]pyrimidine-2,4-diamine], the IC50 is reported as less than 10 nM.
COc1cc(N2CCN(C(C)C)CC2)ccc1Nc1ncc(Br)c(Nc2cc3cnn(C)c3cc2S(C)(=O)=O)n1 [Example 43, 5-bromo-N^2-[4-(4-isopropylpiperazin-1-yl)-2-methoxyphenyl]-N^4-[1-methyl-6-(methylsulfonyl)-1H-indazol-5-yl]pyrimidine-2,4-diamine] gave an IC50 of 10 to 50 nM.
CNC(=O)c1cc2c(cnn2C)cc1Nc1nc(Nc2ccc(N3CCN(C(C)C)CC3)cc2OC)ncc1Br [Example 44, 5-[(5-bromo-2-{[4-(4-isopropylpiperazin-1-yl)-2-methoxyphenyl]amino}pyrimidin-4-yl)amino]-N,1-dimethyl-1H-indazole-6-carboxamide] gave an IC50 of 10 to 50 nM.
CCS(=O)(=O)c1cc2c(cnn2C)cc1Nc1nc(Nc2ccc(N3CCS(=O)(=O)CC3)cc2)ncc1Br [Example 45, 5-bromo-N^2-[4-(1,1-dioxidothiomorpholin-4-yl)phenyl]-N^4-[6-(ethylsulfonyl)-1-methyl-1H-indazol-5-yl]pyrimidine-2,4-diamine] showed an IC50 of 51 to 100 nM.
With CCS(=O)(=O)c1cc2c(cnn2C)cc1Nc1nc(Nc2ccc(N3CCC(N4CCN(C)CC4)CC3)cc2OC)ncc1Br [Example 46, 5-bromo-N^4-[6-(ethylsulfonyl)-1-methyl-1H-indazol-5-yl]-N^2-{2-methoxy-4-[4-(4-methylpiperazin-1-yl)piperidin-1-yl]phenyl}pyrimidine-2,4-diamine] the IC50 was less than 10 nM.
For COc1cc(N2CCC(N3CCN(C)CC3)CC2)ccc1Nc1ncc(Br)c(Nc2ccc3nc(-c4ccccc4)ccc3c2)n1 [Example 47, 5-bromo-N^2-{2-methoxy-4-[4-(4-methylpiperazin-1-yl)piperidin-1-yl]phenyl}-N^4-(2-phenylquinolin-6-yl)pyrimidine-2,4-diamine], the IC50 was greater than 500 nM.
COc1cc(N2CCC(N3CCN(C)CC3)CC2)ccc1Nc1ncc(Br)c(Nc2ccc3ccc(-c4ccccc4)nc3c2)n1 [Example 48, 5-bromo-N^2-{2-methoxy-4-[4-(4-methylpiperazin-1-yl)piperidin-1-yl]phenyl}-N^4-(2-phenylquinolin-7-yl)pyrimidine-2,4-diamine] was tested, and the IC50 was greater than 500 nM.
Molecule COc1cc(N2CCC(N3CCN(C)CC3)CC2)ccc1Nc1ncc(Br)c(Nc2ccc3ncccc3c2)n1 [Example 49, 5-bromo-N^2-{2-methoxy-4-[4-(4-methylpiperazin-1-yl)piperidin-1-yl]phenyl}-N^4-quinolin-6-ylpyrimidine-2,4-diamine] has an IC50 of 10 to 50 nM.
For COc1cc(N2CCC(N3CCN(C)CC3)CC2)ccc1Nc1ncc(Br)c(Nc2ccc3cccnc3c2)n1 [Example 50, 5-bromo-N^2-{2-methoxy-4-[4-(4-methylpiperazin-1-yl)piperidin-1-yl]phenyl}-N^4-quinolin-7-ylpyrimidine-2,4-diamine], the IC50 was 10 to 50 nM.
For COc1cc(N2CCC(N3CCN(C)CC3)CC2)ccc1Nc1ncc(Br)c(Oc2ccc3cccnc3c2)n1 [Example 51, 5-bromo-N-{2-methoxy-4-[4-(4-methylpiperazin-1-yl)piperidin-1-yl]phenyl}-4-(quinolin-7-yloxy)pyrimidin-2-amine], the IC50 was 10 to 50 nM.
